Source: PMC9415894, “Development of Cross-Reactive Antibodies for the Identification and Treatment of Synthetic Cannabinoid Receptor Agonist Toxicity” (Vaccines, 2022)

Experiments:
Assay type in all cases: binding, mice
[1] = test system: antibodies generated following vaccination with hapten 3; test: Competitive ELISA, day 35 pooled sera of hapten 3 vaccine group; settings: for % Inhibition, HAPTEN 3: SCRA at 10 μM; for % Inhibition, HAPTEN 3 / IC50: day 35 pooled sera; for IC50: 11 concentrations; for binding by hapten 3 antibodies (in words): day 35 sera
Method: (§1) Vaccination: Vaccine formulation consisted of our bioconjugates at 1 mg/mL (100 μg/mouse), Alum (50 μg/mouse) and a 1 mg/mL CpG ODN 1826 (50 μg/mouse) in 1X PBS solution. Vaccines were shaken at 4 °C for 45 min prior to animal use. Mock vaccines consisted of the same components with the bioconjugate replaced with native KLH. All animals were vaccinated on day zero and received two boosts, one on day 14 and one on day 28. Sera was collected from each animal on days 21 and 35 via retroorbital blood draws.
(§2) Antibody Titers: Costar® 96-well plates were coated with 25 μL of a 5 μg/mL solution of hapten-BSA conjugate and incubated overnight at 37 °C. Plates were then methanol fixed and non-specific protein binding was blocked with 5% Blotto for 30 min. Pooled sera from either day 21 (1:100 in 5% blotto) or 35 (1:400) were added and serially diluted across the plate before incubating at 37 °C for 60 min. Plates were then washed with 1X PBS prior to the addition of secondary antibody conjugated to horse-radish peroxidase, which incubated at 37 °C for 30 min. Equal parts tetramethylbenzidine and hydrogen peroxide (50 μL) were added to each well and reacted for 15 min before being quenched with 50 μL of 2M sulfuric acid. Optical densities were determined at 450 nm using MiniMax 300 plate reader (Molecular Devices). Lastly, midpoint titers were calculated from the % optical density versus log(dilution) using the log(inhibition) vs response variable slope equation on GraphPad Prism v9 (San Diego, CA, USA).
(§3) Competitive ELISA: Costar® 96-well plates were coated as described in the antibody titer section. After the plates are blocked, 25 μL of a 1:titer solution of each BSA-hapten conjugate is added to every well. Equal volume of a 40 μM solution of each SCRA is then added to column one, and 1:2 serially diluted concentrations added across the wells. Optical densities were determined as in titer experiments, and percent inhibitions were evaluated with GraphPad Prism 9 as in titer experiments.

[2] = test system: antibodies generated from vaccination with hapten 2; test: Competitive ELISA, day 35 pooled sera of hapten 2 vaccine group; settings: for % Inhibition, HAPTEN 2: SCRA at 10 μM, day 35 pooled sera
Method: as §1, §2, §3

[3] = test system: antibodies generated from vaccination with hapten 1; test: Competitive ELISA, day 35 pooled sera of hapten 1 vaccine group; settings: for % Inhibition, HAPTEN 1: SCRA at 10 μM; for % Inhibition, HAPTEN 1 / IC50: day 35 pooled sera; for IC50: 11 concentrations; for reactivity of hapten 1 antibodies (in words): day 35 sera
Method: as §1, §2, §3

[4] = test system: antibodies generated following vaccination with hapten 4; test: Competitive ELISA, day 35 pooled sera of hapten 4 vaccine group; settings: for % Inhibition, HAPTEN 4: SCRA at 10 μM; for % Inhibition, HAPTEN 4 / IC50: day 35 pooled sera; for IC50: 11 concentrations; for binding by hapten 4 antibodies (in words): day 35 sera
Method: as §1, §2, §3

Structure (SMILES)	% Inhibition, HAPTEN 3 [1]	% Inhibition, HAPTEN 2 [2]	% Inhibition, HAPTEN 1 [3]	IC50 [3]	reactivity of hapten 1 antibodies (in words) [3]	% Inhibition, HAPTEN 4 [4]	IC50 [1]	binding by hapten 3 antibodies (in words) [1]	IC50 [4]	binding by hapten 4 antibodies (in words) [4]	reactivity of hapten 2 antibodies (in words) ([2]; day 35 sera)	IC50 for hapten 1 relative to compound 1 ([3]; compared with IC50 against compound 1)
CCCCCn1cc(C(=O)c2cccc3ccccc23)c2ccccc21 [Compound 1, JWH-018]	14.6%	17.7%	60.0%	5.54 µM	micromolar	10.9%	–	–	–	–	–	–
COC(=O)C(NC(=O)c1nn(Cc2ccc(F)cc2)c2ccccc12)C(C)C (centres unmarked) [Compound 7, AMB-FUBINACA]	76.0%	30.7%	11.1%	–	–	77.7%	299 nM	sub-micromolar	966 nM	sub-micromolar	–	–
COC(=O)C(NC(=O)c1nn(CCCCCF)c2ccccc12)C(C)C (centres unmarked) [Compound 6, 5F-AMB]	57.4%	28.7%	16.8%	–	–	63.9%	3320 nM	micromolar to sub-micromolar	2660 nM	bind	–	–
CCCCCn1nc(C(=O)NC(C(=O)OC)C(C)C)c2ccccc21 (centres unmarked) [Compound 5, MMB-PINACA]	82.6%	25.5%	6.9%	–	–	85.5%	269 nM	micromolar to sub-micromolar	334 nM	bind	–	–
COC(=O)C(NC(=O)c1cn(CCCCCF)c2ccccc12)C(C)C (centres unmarked) [Compound 4]	69.0%	19.9%	8.8%	–	–	54.3%	744 nM	micromolar to sub-micromolar	6690 nM	bind	–	–
CCCCCn1cc(C(=O)Oc2cccc3ccccc23)c2ccccc21 [Compound 8, NAPIC]	19.2%	31.5%	13.6%	–	no reactivity	11.0%	–	–	–	–	little to no reactivity	–
O=C(c1cccc2ccccc12)c1cn(CCCCCF)c2ccccc12 [Compound 2, AM-2201]	18.0%	29.5%	79.3%	1.14 µM	micromolar	14.4%	–	–	–	–	–	approximately five times lower
CCCCCn1cc(C(=O)NC(C(=O)OC)C(C)C)c2ccccc21 (centres unmarked) [Compound 3, MMB-PICA]	91.8%	15.2%	0.0%	–	–	71.0%	38 nM	micromolar to sub-micromolar	1260 nM	bind	–	–
